Source: PMC3064985 (Bioorganic & medicinal chemistry, 2010)

Experiments:
[1] = tested on: T. b. rhodesiense STIB900; experiment: STIB900 acute mouse model of trypanosomiasis; format: in vivo; conditions: 5 mg/kg ip, 4 consecutive days
Plasmodium falciparum K1 = experiment: In vitro activity against P. falciparum; format: cell-based; conditions: read-out: P. falciparum IC50; strain K1; average of duplicate determination
[2] = tested on: cultured L6 rat myoblast cells; experiment: Cytotoxicity, Alamar Blue assay; format: cell-based; conditions: read-out: Cytotoxicity IC50
Poly d(A-T)n = experiment: Thermal melting; format: binding; conditions: for Increase in ΔTm on replacing one furan ring with thiophene: compared with bifuran 1c

Molecule | Survival (average days of survival) [1] | Increase in ΔTm on replacing one furan ring with thiophene (Poly d(A-T)n) | other results
6-(5′-Amidino-2,2′-bifuran-5-yl)-nicotinamidine acetate [Compound 1h] | 25.5 days | – | Cures (mice that survive and are parasite free for 60 days) ([1]; groups of four mice): 0/4; IC50 (Plasmodium falciparum K1): 0.0064 µM; IC50 [2]: 26.9 µM; ΔTm, increase in thermal melting of Poly d(A-T)n (Poly d(A-T)n; ratio 0.3 mol compound per mole DNA, CAC 10 buffer pH 7.0): 6.0 °C
Cl.N=C(N)c1ccc(-c2ccc(-c3ccc(C(=N)N)s3)o2)cc1 [Compound 1d, 5-[5-(4-Amidinophenyl)-furan-2-yl]-thiophene-2-carboxamidine hydrochloride] | – | approximately 5 °C | –
Cl.N=C(N)c1ccc(-c2ccc(-c3ccc(C(=N)N)s3)s2)cc1 [Compound 1e, 5′-(4-Amidinophenyl)-2,2′-bithiophene-5-carboxamidine hydrochloride] | 26.25 days | – | –
Cl.N=C(N)c1ccc(-c2ccc(-c3ccc(C(=N)N)o3)s2)cc1 [Compound 1f, 5-[5-(4-Amidinophenyl)-thiophen-2-yl]-furan-2-carboxamidine hydrochloride] | – | approximately 5 °C | –
